Source: PubChem BioAssay (NCI)
“And” between values parts separate entries of the source, which are not always exact repeats. Equal entries are not always repeated.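 How tested: cells in 96-well plates exposed to compound for 48 hours at five concentrations. Here, GI50 denotes the concentration required for 50% inhibition of growth. TGI: total growth inhibition.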

Experiments:
Assay in all cases: NCI anticancer screen, dose series, 48 h
[1] = system: MOLT-4 leukemia
[2] = system: A549 NSCLC
[3] = system: SR leukemia
[4] = system: UACC-257 melanoma
[5] = system: SNB-19 CNS
[6] = system: 786-0 renal
[7] = system: HCT-15 colon
[8] = system: OVCAR-5 ovarian
[9] = system: IGROV1 ovarian
[10] = system: NCI-H460 lung

Compound | TGI [1] | TGI [2] [µM] | TGI [3] [µM] | TGI [4] [µM] | TGI [5] [µM] | TGI [6] [µM] | TGI [7] | TGI [8] [µM] | TGI [9] [µM] | TGI [10] [µM] | GI50 [1] [µM] | GI50 [2] [µM] | GI50 [3] [µM] | GI50 [4] [µM] | GI50 [5] [µM] | GI50 [6] [µM] | GI50 [7] [µM] | GI50 [8] [µM] | GI50 [9] [µM] | GI50 [10] [µM]
CCn1c2ccccc2c(=O)c2c(OC)ccc(OC)c21 | > 100 µM | > 100 | > 100 | > 100 | > 100 | > 100 | > 100 µM | > 100 | > 100 | > 100 | – | – | – | – | – | – | – | – | – | –
O=C(N/C(=C\c1cccc([N+](=O)[O-])c1)c1nc2ccccc2[nH]1)c1ccccc1 | > 100 µM | > 100 | > 100 | > 100 | > 100 | > 100 | > 100 µM | > 100 | > 100 | > 100 | – | – | – | – | – | – | – | – | – | –
N#CC1=C(N)NC(=S)NC12Nc1ccccc1S2 (stereo unspecified) | > 100 µM | > 100 | 46.8 | > 100 | > 100 | > 100 | > 100 µM | > 100 | > 100 | 45.8 | 28.8 | 37.7 | 15.8 | 29 | 28.1 | > 100 | 28.9 | 75.7 | 23.3 | 17
C=C1C(=O)O[C@H]2[C@H](OC(C)=O)[C@@H](C)CCCC3(C)OC3CCC3(CO3)[C@H](O)C[C@@H]12 (stereo partly specified) | 4.14 µM | 74.8 | 2.26 | 49.9 | 83.1 | 21 | 21.8 µM | 12 | 38.7 | 36 | 1.73 | 19.8 | 0.568 | 17.3 | 25.7 | 5.15 | 10.2 | 2.38 | 13.9 | 12.9
COC(=O)c1ncc2c(=O)[nH]c3ccccc3c2c1C(=O)OC | > 100 µM | > 100 | > 100 | > 100 | > 100 | > 100 | > 100 µM | > 100 | > 100 | 47.3 | – | – | – | – | – | – | – | – | – | –
CC1(C)N=C(N)N=C(N)N1c1ccc(OCCCNC(=O)Nc2cccc(S(=O)(=O)F)c2)c(Cl)c1 | > 100 µM | > 100 | > 100 | > 100 | > 100 | > 100 | > 100 µM | > 100 | > 100 | > 100 | 3.26 | 1.69 | 0.637 | > 100 | 1.22 | 1.11 | 29.2 | 3.98 | 0.448 | 0.511
CN(C)CCCSc1ccccc1NC1=C(Cl)C(=O)C(Nc2ccccc2SCCCN(C)C)=C(Cl)C1=O | 2.68 µM | 17 | 6.05 | 3.45 | 11.4 | 3.17 | 3.32 µM | 3.29 | 3.44 | 16.3 | 0.41 | 5.43 | 2.15 | 1.96 | 3.42 | 1.72 | 1.69 | 1.78 | 1.39 | 4.49
OCC[N+]12CCCN1CCC2 | > 100 µM | > 100 | > 100 | > 100 | > 100 | > 100 | > 100 µM | > 100 | > 100 | > 100 | – | – | – | – | – | – | – | – | – | –
COc1ccc(C(=O)c2c3cc(OC)c(OC)c(OC)c3cc[n+]2C)cc1 | > 100 µM | 34.7 | > 100 | – | > 100 | 33.5 | – | > 100 | > 100 | > 100 | – | – | – | – | – | – | – | – | – | –
Cn1c2c(c3ccccc31)CCN(CCCCN1CCN(c3ccccc3)CC1)C2=O | > 78 µM | > 100 | > 100 | 26.6 | > 100 | > 46.4 | > 100 µM | 80.9 | > 100 | > 93.8 | – | – | – | – | – | – | – | – | – | –
O=C(CCc1ccccc1)NS(=O)(=O)c1ccccc1 | > 100 µM | > 100 | > 100 | > 100 | > 100 | > 100 | – | > 100 | > 100 | > 100 | – | – | – | – | – | – | – | – | – | –
CC(C)(C)C(=O)Nc1cccc2oc(-c3ccccc3)cc12 | > 100 µM | > 100 | > 100 | > 100 | > 100 | > 100 | > 100 µM | – | > 100 | > 100 | – | – | – | – | – | – | – | – | – | –
O=C(O)c1ccc(C(O)(c2ccccc2)c2ccccc2)cc1 | > 100 µM | > 100 | > 100 | > 100 | > 100 | > 100 | > 100 µM | > 100 | > 100 | – | – | – | – | – | – | – | – | – | – | –
COc1cccc(-c2cc(=O)c3cc(N4CCOCC4)ccc3[nH]2)c1 | 1.48 µM and 0.17 µM | > 100 | 0.741 | > 100 | – | > 100 | 0.227 µM and 0.575 µM | > 100 | > 100 | > 100 | 0.0338 | 0.225 | – | 0.02 | – | 0.0602 | 0.0328 | 0.268 | 0.145 | 0.272
CCOC(=O)C(CCC(N)=O)(CCC(=O)OC)C(=O)OCC | > 100 µM | > 100 | > 100 | > 100 | > 100 | > 100 | – | > 100 | > 100 | > 100 | – | – | – | – | – | – | – | – | – | –
C#CC(=O)Nc1cccc2c1cc(C)n2-c1nc2c(c(NCc3ccccc3)n1)CCCC2 | 0.443 µM | 4.1 | 0.0507 | – | 2.66 | 0.0359 | 0.409 µM | 0.977 | – | 2.59 | 0.15 | 1.97 | < 0.0201 | – | 0.845 | 0.0189 | 0.167 | 0.279 | – | 0.759
C/C(=N\OCC(O)CNCCSCc1ccccc1)c1ccccc1Cl (stereo unspecified) | > 100 µM | 45.6 | 78.3 | 35.6 | 39.7 | 46.3 | 41.1 µM | 37.9 | – | 52.3 | – | – | – | – | – | – | – | – | – | –
